From the supplement of paper PMC10307832

Legend:
Test in all cases: relative viability (nuclei count vs DMSO), 5 days (fraction); higher = more cells survive
[1] = compound: CO[C@@H]1[C@H](N(C)C(=O)c2ccccc2)C[C@H]2O[C@]1(C)n1c3ccccc3c3c4c(c5c6ccccc6n2c5c31)C(=O)NC4 [Midostaurin] + CC(=O)c1c(C)c2cnc(Nc3ccc(N4CCNCC4)cn3)nc2n(C2CCCC2)c1=O [Palbociclib] (partner 0.5 µM)
Outline: (§1)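 Cells from lung cancer lines were seeded into 1536-well plates and, one day later, dosed by pin tool. Treatments were either a single drug or a fixed dose of an anchor drug with five library-drug doses (not always all listed) in √10 steps. After 5 days, nuclei were stained in a one-step fixation (final 0.05% Triton X-100, 1% formaldehyde, 1 ug/ml Hoechst) and counted on 4× images, and relative viability is the treated-to-vehicle nuclei ratio, as the median of duplicate plates.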

Midostaurin + Linsitinib = compound: CO[C@@H]1[C@H](N(C)C(=O)c2ccccc2)C[C@H]2O[C@]1(C)n1c3ccccc3c3c4c(c5c6ccccc6n2c5c31)C(=O)NC4 [Midostaurin] + C[C@]1(O)C[C@@H](c2nc(-c3ccc4ccc(-c5ccccc5)nc4c3)c3c(N)nccn32)C1 [Linsitinib] (partner 1 µM)
Outline: as §1

[2] = compound: COc1cc(-c2nn([C@H]3CC[C@H](N4CCN(C(C)=O)CC4)CC3)c3ncnc(N)c23)ccc1NC(=O)c1cc2ccccc2n1C + CC(=O)c1c(C)c2cnc(Nc3ccc(N4CCNCC4)cn3)nc2n(C2CCCC2)c1=O [Palbociclib] (partner 0.5 µM)
Outline: as §1

[3] = compound: COc1cc(-c2nn([C@H]3CC[C@H](N4CCN(C(C)=O)CC4)CC3)c3ncnc(N)c23)ccc1NC(=O)c1cc2ccccc2n1C + Cc1nc(NC(=O)N2CCC[C@H]2C(N)=O)sc1-c1ccnc(C(C)(C)C(F)(F)F)c1 [Alpelisib] (partner 2 µM)
Outline: as §1

[4] = compound: COc1cc(-c2nn([C@H]3CC[C@H](N4CCN(C(C)=O)CC4)CC3)c3ncnc(N)c23)ccc1NC(=O)c1cc2ccccc2n1C + N=C(N)NC(=N)NCCc1ccccc1 [Phenformin] (partner 250 µM)
Outline: as §1

| Cell Line | relative viability ([1]; first compound 0.01 µM) | relative viability ([1]; first compound 0.03162 µM) | relative viability ([1]; first compound 0.1 µM) | relative viability ([1]; first compound 0.3162 µM) | relative viability (Midostaurin + Linsitinib; first compound 0.01 µM) | relative viability (Midostaurin + Linsitinib; first compound 0.03162 µM) | relative viability (Midostaurin + Linsitinib; first compound 0.1 µM) | relative viability (Midostaurin + Linsitinib; first compound 0.3162 µM) | relative viability ([2]; first compound 0.0128 µM) | relative viability ([2]; first compound 0.04048 µM) | relative viability ([2]; first compound 0.128 µM) | relative viability ([2]; first compound 1.28 µM) | relative viability ([3]; first compound 0.0128 µM) | relative viability ([3]; first compound 0.04048 µM) | relative viability ([3]; first compound 0.128 µM) | relative viability ([3]; first compound 1.28 µM) | relative viability ([4]; first compound 0.0128 µM) | relative viability ([4]; first compound 0.04048 µM) | relative viability ([4]; first compound 0.128 µM) | relative viability ([4]; first compound 1.28 µM) |
| --- | --- | --- | --- | --- | --- | --- | --- | --- | --- | --- | --- | --- | --- | --- | --- | --- | --- | --- | --- | --- |
| HARA | 0.316 | 0.283 | 0.278 | 0.242 | 0.936 | 0.979 | 0.877 | 0.969 | 0.268 | 0.241 | 0.246 | 0.185 | 0.855 | 0.886 | 0.735 | 0.447 | 0.426 | 0.533 | 0.41 | 0.332 |
| HCC-15 | 0.806 | 0.788 | 0.771 | 0.73 | 0.886 | 0.898 | 0.904 | 0.818 | 0.555 | 0.663 | 0.839 | 0.705 | 0.963 | 0.886 | 0.864 | 0.662 | 0.525 | 0.447 | 0.476 | 0.42 |
| HCC-44 | 1.01 | 1.02 | 0.942 | 0.99 | 0.756 | 0.659 | 0.579 | 0.609 | 1.04 | 0.975 | 0.972 | 1.29 | 0.923 | 0.763 | 0.789 | 0.511 | 0.367 | 0.187 | 0.305 | 0.22 |
| HCC-78 | 0.536 | 0.474 | 0.474 | 0.469 | 0.53 | 0.483 | 0.556 | 0.278 | 0.479 | 0.433 | 0.465 | 0.381 | 0.376 | 0.361 | 0.322 | 0.281 | 0.734 | 0.789 | 0.601 | 0.37 |
| HCC-366 | 0.364 | 0.409 | 0.389 | 0.384 | 0.624 | 0.754 | 0.457 | 0.381 | 0.485 | 0.431 | 0.403 | 0.256 | 0.444 | 0.374 | 0.418 | 0.259 | 0.566 | 0.664 | 0.623 | 0.658 |
| HCC-827 | 0.423 | 0.521 | 0.503 | 0.506 | 0.928 | 0.883 | 0.852 | 1.06 | 0.492 | 0.455 | 0.484 | 0.218 | 1.11 | 0.961 | 0.942 | 0.726 | 0.384 | 0.396 | 0.406 | 0.39 |
| HOP-62 | 0.452 | 0.48 | 0.455 | 0.501 | 1.1 | 0.911 | 0.938 | 0.995 | 0.503 | 0.468 | 0.411 | 0.432 | 1.04 | 0.907 | 0.952 | 0.774 | 0.712 | 0.657 | 0.656 | 0.709 |
| IA-LM | – | – | – | – | 0.557 | 0.378 | 0.711 | 0.673 | – | – | – | – | 0.838 | 0.803 | 0.783 | 0.84 | – | – | – | – |
| LC-2-ad | 0.482 | 0.53 | 0.536 | 0.566 | 0.851 | 0.768 | 0.849 | 0.631 | 0.543 | 0.508 | 0.502 | 0.511 | 1.01 | 0.931 | 0.872 | 0.699 | 0.642 | 0.552 | 0.593 | 0.503 |
| NCI-H522 | 1.01 | 0.876 | 0.967 | 1.32 | – | – | – | – | 1.08 | 0.864 | 0.822 | 0.778 | – | – | – | – | 0.598 | 0.625 | 0.641 | 0.541 |
| NCI-H596 | – | – | – | – | 1.09 | 1.17 | 1.08 | 1.15 | – | – | – | – | 0.523 | 0.511 | 0.516 | 0.271 | 0.665 | 0.896 | 0.657 | 0.579 |
| NCI-H1299 | – | – | – | – | 0.943 | 0.91 | 0.95 | 0.616 | – | – | – | – | 1.1 | 1.11 | 1.06 | 1.08 | – | – | – | – |
| NCI-H1563 | – | – | – | – | 1.16 | 1.2 | 1.03 | 1.11 | – | – | – | – | 0.876 | 0.918 | 0.998 | 0.865 | 0.608 | 0.635 | 0.662 | 0.617 |
| NCI-H1648 | 0.35 | – | – | 0.285 | – | – | – | – | 0.263 | 0.275 | 0.242 | 0.333 | – | – | – | – | – | – | – | – |
| NCI-H1650 | 0.297 | 0.409 | 0.343 | 0.522 | – | – | – | – | 0.342 | 0.409 | 0.306 | 0.268 | – | – | – | – | 0.41 | 0.57 | 0.435 | 0.479 |
| NCI-H1703 | – | – | – | – | 0.838 | 0.69 | 0.672 | 0.296 | – | – | – | – | 0.372 | 0.243 | 0.228 | 0.157 | – | – | – | – |
| NCI-H2170 | 0.394 | 0.397 | 0.406 | 0.454 | – | – | – | – | 0.445 | 0.396 | 0.383 | 0.327 | 0.891 | 0.789 | 0.82 | 0.686 | 0.437 | 0.412 | 0.405 | 0.377 |
| NCI-H2342 | 0.477 | 0.538 | 0.491 | 0.547 | – | – | – | – | 0.503 | 0.487 | 0.517 | 0.514 | – | – | – | – | 0.529 | 0.584 | 0.637 | 0.628 |
| SW 900 | 0.574 | 0.587 | 0.545 | 0.639 | – | – | – | – | 0.564 | 0.584 | 0.538 | 0.353 | – | – | – | – | 0.639 | 0.66 | 0.494 | 0.448 |
